Our source for the Ki values is patent US20250129048A1, “MELANOCORTIN 4 RECEPTOR ANTAGONISTS AND USES THEREOF” (Pfizer Inc., priority 2021, published 2025).

Where only a bound is given, the exact number is not on record here.

In general, Ki refers to a measure of affinity in units of concentration, obtained from inhibition or displacement.

In the assay the target is hMC4R (Homo sapiens (Human), UniProt P32245). Description: In vitro binding affinity assay using hMC4R (radioligand competition binding, CHO cell membranes). The conditions noted are these: competition with [125I]-(Nle4, D-Phe7)-α-MSH 0.5 nM; Ki from IC50 by Cheng-Prusoff; read-out: Ki (nM) geometric mean. How it is done: The binding affinity of test compounds at the α-melanocyte-stimulating hormone receptor (hMC4R) was assessed using a radioligand competition binding assay. Recombinant Chinese hamster ovaries (CHO) cells stably expressing hMC4R (PerkinElmer #ES-191-C) were used for competitive binding. hMC4R membranes were grown in Dulbecco's Modified Essential Medium and Ham's F-12 Medium (DMEM/F12), 10% heat inactivated fetal bovine serum (FBS), 0.4 mg/mL Geneticin and 2 mM L-glutamine. Cell membranes were bulked and frozen until the assay was performed.
Sequence of hMC4R (P32245 whole entry): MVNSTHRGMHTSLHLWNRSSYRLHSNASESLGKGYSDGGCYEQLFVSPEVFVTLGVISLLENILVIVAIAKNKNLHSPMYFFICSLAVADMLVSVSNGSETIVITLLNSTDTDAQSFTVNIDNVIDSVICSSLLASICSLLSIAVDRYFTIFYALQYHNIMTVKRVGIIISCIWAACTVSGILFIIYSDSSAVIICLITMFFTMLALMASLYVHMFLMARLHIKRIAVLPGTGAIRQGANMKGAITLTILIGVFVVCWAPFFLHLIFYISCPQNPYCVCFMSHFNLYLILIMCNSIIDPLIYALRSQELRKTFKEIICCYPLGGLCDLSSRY
Compounds were solubilized in 100% dimethyl sulfoxide (DMSO) to a concentration of 30 mM. A 10-point intermediate dilution series using half log dilutions was created in 100% DMSO with a top concentration of 0.03 mM. The serially diluted compounds were spotted as 1 μL/well, in 96-well Costar 3363 plates. The final compound range in the assay was 300 nM to 0.01 nM with a final DMSO concentration of 1%. Control wells, containing 1 μL of 2 mM ([…]) alpha-melanocyte stimulating hormone (α-MSH-Tocris #2584) was added to the non-specific binding wells and 1 μL 100% DMSO for the total binding control wells. This was followed by the addition of 80 μL of assay buffer [25 mM HEPES, 5 mM MgCl2, 2.5 mM CaCl2, 150 mM NaCl, Complete EDTA-free Protease Inhibitor Tablet (Thermo Scientific #11873580001) and 0.25% BSA]. […] The exact concentration of radioligand used for each experiment was determined by liquid scintillation counting and adjusted if necessary.
Frozen hMC4R cell membranes were thawed and Dounce homogenized. Homogenates were resuspended in assay buffer to a concentration of 2 μg per well. […] The plates were incubated for 2 hours at room temperature. Assay samples were then rapidly filtered through Unifilter-96 GF/B PEI coated filter plates using a filter plate harvester (PerkinElmer) and rinsed with ice-cold wash buffer [25 mM (4-(2-hydroxyethyl)-1-piperazineethanesulfonic acid (HEPES), 1 mM MgCl2, 2.5 mM CaCl2, and 500 mM NaCl]. Filter plates were dried overnight at room temperature. Plates were then bottom-sealed prior to the addition of 50 μL/well Ultima Gold XR scintillation fluid (PerkinElmer 6013111). Plates were then top-sealed, incubated for 60 minutes at room temperature and then the amount of radioactivity present was determined by liquid scintillation counting on a Microbeta Trilux (PerkinElmer #2450-0060).
The raw data (expressed as counts per minute) were analyzed using ActivityBase (IDBS Data Management Software). […] Equilibrium dissociation constant for inhibitor of ligand and receptor interaction (Ki) values were then calculated from the IC50 values using the Cheng-Prusoff equation: Ki=IC50/(1+([L]/Kd)), where [L] is the concentration of the radioligand used in the experiment and Kd is the affinity of the radioligand (determined in separate saturation experiments).
For orientation: Loss of bound radioactivity is the signal in a displacement assay; it reports binding, not function.
Turning to `Cc1nc(N[C@H]2CCN(C(=O)C(F)(F)c3ccc(Cl)cc3)C2)ccc1-c1cn(C)c(C(F)F)n1` [Example 23, 2-(4-chlorophenyl)-1-[(3S)-3-({5-[2-(difluoromethyl)-1-methyl-1H-imidazol-4-yl]-6-methylpyridin-2-yl}amino)pyrrolidin-1-yl]-2,2-difluoroethan-1-one], the Ki stood at 1.1 nM.
The same measure for `COc1cc([C@@H](C)C(=O)N2CC[C@H](Nc3ccc(-c4nc(C(C)(F)F)n(C)n4)c(C)n3)C2)c(Cl)cn1` (single isomer, unassigned) [Example 37A]: 150 nM.
As to `COc1cc(CC(=O)N2CC[C@H](Nc3ccc(-c4cn(C)cn4)c(C)n3)C2)ccc1C` [Example 31, 2-(3-methoxy-4-methylphenyl)-1-[(3S)-3-{[6-methyl-5-(1-methyl-1H-imidazol-4-yl)pyridin-2-yl]amino}pyrrolidin-1-yl]ethan-1-one], the inhibitory constant (Ki) is 1 nM.
As for `Cc1nc(N[C@H]2CCN(C(=O)Cc3ccc(F)cc3)C2)ccc1-c1cc(C)n(C)n1` [Example 32, 1-[(3S)-3-{[5-(1,5-dimethyl-1H-pyrazol-3-yl)-6-methylpyridin-2-yl]amino}pyrrolidin-1-yl]-2-(4-fluorophenyl)ethan-1-one], the figure is 5.5 nM.
As for `COc1cc([C@](C)(F)C(=O)N2CC[C@H](Nc3ccc(-c4cn(C)c(C(F)F)n4)c(C)n3)C2)ccn1` (single isomer, unassigned) [Example 36B], the figure is 4.3 nM.
Turning to `COc1cc([C@@H](C)C(=O)N2CC[C@H](Nc3ccc(-c4cn(C)c(C(F)F)n4)c(C)n3)C2)cc(OC)n1` (single isomer, unassigned) [Example 12B], the Ki was found to be 7.7 nM.
For `COc1cc([C@@H](C)C(=O)N2CC[C@H](Nc3ccc(-c4nc(C(F)(F)F)n(C)n4)c(C)n3)C2)c(Cl)cn1` (single isomer, unassigned) [Example 25A], the Ki was 88 nM.
On to `COc1cc([C@@H](C)C(=O)N2CC[C@H](Nc3ccc(-c4cn(C)c(C(C)(F)F)n4)c(C)n3)C2)c(C)cn1` (single isomer, unassigned) [Example 16A], for which the inhibition constant Ki was greater than 220 nM.
As for `Cc1ccccc1[C@@H](C)C(=O)N1CC[C@H](Nc2ccc(-c3cn(C)c(C(C)(F)F)n3)c(C)n2)C1` (single isomer, unassigned) [Example 15A], the figure is 150 nM; as for `COc1cc([C@@H](C)C(=O)N2CC[C@H](Nc3ccc(-c4cn(C)c(C(C)(F)F)n4)c(C)n3)C2)c(F)cn1` (single isomer, unassigned) [Example 21A], 190 nM; as for `Cc1nc(N[C@@H]2CCN(C(=O)Cc3ccc(F)cc3)C2(C)C)ccc1-c1cn(C)cn1` [Example 3A, 1-[(3R)-2,2-dimethyl-3-{[6-methyl-5-(1-methyl-1H-imidazol-4-yl)pyridin-2-yl]amino}pyrrolidin-1-yl]-2-(4-fluorophenyl)ethan-1-one], 520 nM.
As for `Cc1nc(N[C@H]2CCN(C(=O)Cc3ccc(F)cc3)C2)ccc1-c1noc(C(F)(F)F)n1` [Example 27, 2-(4-fluorophenyl)-1-[(3S)-3-({6-methyl-5-[5-(trifluoromethyl)-1,2,4-oxadiazol-3-yl]pyridin-2-yl}amino)pyrrolidin-1-yl]ethan-1-one], the figure is 950 nM; as for `COc1cc([C@@H](C)C(=O)N2CC[C@H](Nc3ccc(-c4cn(C)c(C(F)F)n4)c(C)n3)C2)c(F)cn1` (single isomer, unassigned) [Example 38A], 62 nM.
The same measure for `Cc1nc(N[C@H]2CCN(C(=O)[C@H](C)c3ccccc3)C2)ccc1-c1cn(C)c(C(F)F)n1` [Example 11, (2R)-1-[(3S)-3-({5-[2-(difluoromethyl)-1-methyl-1H-imidazol-4-yl]-6-methylpyridin-2-yl}amino)pyrrolidin-1-yl]-2-phenylpropan-1-one]: 1.1 nM; for `COc1cc([C@@H](C)C(=O)N2CC[C@H](Nc3ccc(-c4nc(C(F)F)n(C)n4)c(C)n3)C2)c(Cl)cn1` (single isomer, unassigned) [Example 24A]: 20 nM; for `COc1cc(OC(F)F)cc([C@@H](C)C(=O)N2CC[C@H](Nc3ccc(-c4nc(C(C)(F)F)n(C)n4)c(C)n3)C2)c1` (single isomer, unassigned) [Example 40A]: 54 nM.
With `COc1cc([C@@H](C)C(=O)N2CC[C@H](Nc3ccc(-c4nc(C(F)F)n(C)n4)c(C)n3)C2)nc(C)n1` (single isomer, unassigned) [Example 41A], the inhibition constant Ki was 240 nM.
As for `COc1ccc(C)c([C@@H](C)C(=O)N2CC[C@H](Nc3ccc(-c4cn(C)cn4)c(C)n3)C2)c1` (single isomer, unassigned) [Example 20A], the figure is 1100 nM; as for `Cc1nc(N[C@H]2CCN(C(=O)C3(c4ccccc4)CC3(F)F)C2)ccc1-c1cn(C)cn1` (stereo partly drawn) [Example 35, (2,2-difluoro-1-phenylcyclopropyl)[(3S)-3-{[6-methyl-5-(1-methyl-1H-imidazol-4-yl)pyridin-2-yl]amino}pyrrolidin-1-yl]methanone], 0.95 nM.
The same measure for `Cc1nc(N[C@H]2CCN(C(=O)C(F)(F)c3ccc(Cl)c(Cl)c3)C2)ccc1-c1cn(C)c(C(F)F)n1` [Example 34, 2-(3,4-dichlorophenyl)-1-[(3S)-3-({5-[2-(difluoromethyl)-1-methyl-1H-imidazol-4-yl]-6-methylpyridin-2-yl}amino)pyrrolidin-1-yl]-2,2-difluoroethan-1-one]: 0.88 nM; for `COc1cccc([C@@H](C)C(=O)N2CC[C@H](Nc3ccc(-c4cn(C)c(C(C)(F)F)n4)c(C)n3)C2)c1` (single isomer, unassigned) [Example 14A]: 530 nM; for `Cc1ccccc1[C@@H](C)C(=O)N1CC[C@H](Nc2ccc(-c3cn(C)c(C(C)(F)F)n3)c(C)n2)C1` (single isomer, unassigned) [Example 15B]: 0.83 nM.
As for `Cc1nc(N[C@H]2CCN(C(=O)Cc3ccc(F)c(F)c3)C2)ccc1-c1cn(C)c(C(F)F)n1` [Example 10, 1-[(3S)-3-({5-[2-(difluoromethyl)-1-methyl-1H-imidazol-4-yl]-6-methylpyridin-2-yl}amino)pyrrolidin-1-yl]-2-(3,4-difluorophenyl)ethan-1-one], the figure is 0.31 nM; as for `Cc1nc(N[C@H]2CCN(C(=O)Cc3ccc(OC(F)(F)F)cc3)C2)ccc1-c1cn(C)c(C(F)F)n1` [Example 9, 1-[(3S)-3-({5-[2-(difluoromethyl)-1-methyl-1H-imidazol-4-yl]-6-methylpyridin-2-yl}amino)pyrrolidin-1-yl]-2-[4-(trifluoromethoxy)phenyl]ethan-1-one], 0.46 nM.
`COc1cc([C@@H](C)C(=O)N2CC[C@H](Nc3ccc(-c4nc(C(F)F)n(C)n4)c(C)n3)C2)ccn1` (single isomer, unassigned) [Example 33A]: the Ki came out at 1100 nM.
Regarding `Cc1nc(N[C@H]2CCN(C(=O)Cc3ccc(F)cc3)C2)ccc1-c1nc2n(n1)CC(F)(F)CO2` [Example 29, 1-[(3S)-3-{[5-(6,6-difluoro-6,7-dihydro-5H-[1,2,4]triazolo[5,1-b][1,3]oxazin-2-yl)-6-methylpyridin-2-yl]amino}pyrrolidin-1-yl]-2-(4-fluorophenyl)ethan-1-one], the inhibition constant (Ki) worked out at 6.9 nM.
